Reference: patent US8916565B2, “Pyrrolopyrazine-spirocyclic piperidine amides as modulators of ion channels” (priority 2011, dated 2014)

Molecular target: human NaV subtype, like NaV 1.7 (Homo sapiens, UniProt Q15858)
Assay: E-VIPR optical membrane potential assay with electrical stimulation
Assay type: cell-based
Details: active against one or more sodium channels; Table 3 does not name the assay or NaV subtype; read-out: Binned Activity Data (IC50)

Chain of human NaV subtype, like NaV 1.7 (Q15858 whole entry): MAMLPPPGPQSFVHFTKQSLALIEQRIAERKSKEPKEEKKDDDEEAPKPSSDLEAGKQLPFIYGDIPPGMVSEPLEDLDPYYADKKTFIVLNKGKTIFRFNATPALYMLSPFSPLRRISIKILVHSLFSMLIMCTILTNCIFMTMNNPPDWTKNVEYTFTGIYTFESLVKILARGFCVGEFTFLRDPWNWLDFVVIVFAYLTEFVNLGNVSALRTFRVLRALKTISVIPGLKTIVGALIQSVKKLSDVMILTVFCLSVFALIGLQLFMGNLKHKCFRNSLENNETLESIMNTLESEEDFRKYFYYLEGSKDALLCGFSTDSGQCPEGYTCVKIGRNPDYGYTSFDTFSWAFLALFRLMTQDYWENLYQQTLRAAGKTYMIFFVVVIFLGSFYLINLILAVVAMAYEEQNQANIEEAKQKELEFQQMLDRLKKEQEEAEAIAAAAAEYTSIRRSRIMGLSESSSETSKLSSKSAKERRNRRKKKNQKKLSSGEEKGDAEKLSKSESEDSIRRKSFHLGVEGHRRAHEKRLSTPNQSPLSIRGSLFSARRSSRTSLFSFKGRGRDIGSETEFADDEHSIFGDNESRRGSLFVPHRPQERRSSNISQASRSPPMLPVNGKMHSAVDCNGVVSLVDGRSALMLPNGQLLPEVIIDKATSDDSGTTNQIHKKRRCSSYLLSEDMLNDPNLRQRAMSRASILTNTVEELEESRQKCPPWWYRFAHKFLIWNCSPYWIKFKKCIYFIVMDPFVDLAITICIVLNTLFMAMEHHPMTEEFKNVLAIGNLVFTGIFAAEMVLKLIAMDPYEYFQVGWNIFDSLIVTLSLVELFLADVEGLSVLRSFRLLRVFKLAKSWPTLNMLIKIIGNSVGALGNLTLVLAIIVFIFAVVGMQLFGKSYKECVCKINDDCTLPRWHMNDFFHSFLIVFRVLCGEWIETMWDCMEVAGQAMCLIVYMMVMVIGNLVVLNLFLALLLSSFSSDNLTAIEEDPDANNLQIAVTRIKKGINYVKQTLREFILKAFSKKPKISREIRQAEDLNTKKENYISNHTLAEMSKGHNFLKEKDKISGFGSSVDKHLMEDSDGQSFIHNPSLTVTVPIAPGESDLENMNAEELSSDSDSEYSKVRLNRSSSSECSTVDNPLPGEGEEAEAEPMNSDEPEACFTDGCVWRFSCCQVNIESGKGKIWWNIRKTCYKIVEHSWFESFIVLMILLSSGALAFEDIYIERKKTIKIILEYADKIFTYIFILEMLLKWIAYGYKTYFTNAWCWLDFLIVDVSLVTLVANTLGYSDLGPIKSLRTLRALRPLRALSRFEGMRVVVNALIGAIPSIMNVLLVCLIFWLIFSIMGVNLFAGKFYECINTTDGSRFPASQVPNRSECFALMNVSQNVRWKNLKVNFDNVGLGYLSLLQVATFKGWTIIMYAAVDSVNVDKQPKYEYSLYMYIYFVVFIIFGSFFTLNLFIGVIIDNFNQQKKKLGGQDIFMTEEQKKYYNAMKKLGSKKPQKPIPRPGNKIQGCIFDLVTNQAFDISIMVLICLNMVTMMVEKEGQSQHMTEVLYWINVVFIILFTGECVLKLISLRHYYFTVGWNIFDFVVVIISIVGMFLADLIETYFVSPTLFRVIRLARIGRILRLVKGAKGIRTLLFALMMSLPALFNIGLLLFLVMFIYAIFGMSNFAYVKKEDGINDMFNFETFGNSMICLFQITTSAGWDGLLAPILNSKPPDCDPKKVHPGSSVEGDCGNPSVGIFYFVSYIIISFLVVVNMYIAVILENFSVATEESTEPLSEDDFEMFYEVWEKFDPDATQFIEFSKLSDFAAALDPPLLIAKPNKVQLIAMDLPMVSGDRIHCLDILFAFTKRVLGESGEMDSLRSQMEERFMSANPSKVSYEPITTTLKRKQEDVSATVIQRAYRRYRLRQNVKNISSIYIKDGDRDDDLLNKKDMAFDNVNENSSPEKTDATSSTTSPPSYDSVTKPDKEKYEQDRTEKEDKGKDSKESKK

SMILES	IC50 [nM]
CC(C)Oc1ccc(C(=O)N2CCC3(CC2)c2ccc(S(C)(=O)=O)n2CCN3C)cc1Cl [Compound 111]	> 5000
CC(C)Oc1ccc(C(=O)N2CCC3(CC2)NCCn2c(C(F)(F)F)ccc23)cc1CO [Compound 549]	≤ 2000
Cc1cc(C(=O)N2CCC3(CC2)c2ccc(C(=O)C(F)(F)F)n2CCN3C)ccc1C1(O)CCCC1 [Compound 487]	≤ 2000
Cc1cc(C(F)F)n2ncc(C(=O)N3CCC4(CC3)NCCn3c(C(F)(F)F)ccc34)c2n1 [Compound 159]	2000 to 5000
CC(=O)c1ccc2n1CCN(C)C21CCN(C(=O)c2ccc(OCC(F)(F)F)cc2)CC1 [Compound 520]	≤ 2000
Cc1cc(C(=O)N2CCC3(CC2)c2ccc(C(=O)C(F)(F)F)n2CCN3C)ccc1S(=O)(=O)C(C)C [Compound 508]	≤ 2000
CN1CCn2c(C(F)(F)F)ccc2C12CCN(C(=O)c1ccc(C(C)(C)O)cc1)CC2 [Compound 84]	≤ 2000
CC(=O)c1ccc2n1CCN(C)C21CCN(C(=O)c2ccc(OC(C)C)c(CO)c2)CC1 [Compound 558]	> 5000
Cc1cc(C(=O)N2CCC3(CC2)c2ccc(C(=O)C(F)(F)F)n2CCN3C)ncc1OC(C)C [Compound 573]	≤ 2000
Cc1cc(C(=O)N2CCC3(CC2)c2ccc(CC(F)(F)F)n2CCN3C)ccc1C(C)(C)O [Compound 593]	≤ 2000
COc1cc(C(=O)N2CCC3(CC2)c2ccc(C(F)(F)F)n2CCN3C)cc(F)c1OC(C)C [Compound 544]	≤ 2000
CC(C)CNc1ncccc1C(=O)N1CCC2(CC1)c1ccc(C(F)(F)F)n1CCN2C [Compound 44]	2000 to 5000
COc1cc(C(=O)N2CCC3(CC2)c2c(Cl)cc(C(F)(F)F)n2CCN3C)ccc1COCC(F)(F)F [Compound 687]	≤ 2000
COc1ccccc1C(=O)N1CCC2(CC1)c1ccc(C(F)(F)F)n1CCN2C [Compound 99]	2000 to 5000
CCCOc1ccc(C(=O)N2CCC3(CC2)c2ccc(C(=O)C(F)(F)F)n2CCN3C)cc1OC [Compound 538]	≤ 2000
CN1CCn2c(Cl)ccc2C12CCN(C(=O)c1ccc(C3(O)CCCC3)cc1)CC2 [Compound 301]	> 5000
COc1ccc(C(=O)N2CCC3(CC2)NC(C)(C)Cn2c(C(C)=O)ccc23)cc1Cl [Compound 204]	> 5000
CCCCCc1ccc(C(=O)N2CCC3(CC2)c2ccc(C(=O)C(F)(F)F)n2CCN3C)cc1 [Compound 62]	≤ 2000
COc1cc(C(=O)N2CC[C@]3(c4ccc(C(F)(F)F)n4CCN3C)[C@H](F)C2)ccc1OC(C)C [Compound 105]	≤ 2000
CN1CCn2c(Cl)ccc2C12CCN(C(=O)c1ccc(OCC(F)(F)F)cc1)CC2 [Compound 330]	2000 to 5000
CC(C)c1ccc(C(=O)N2CCC3(CC2)c2ccc(C(=O)C(F)(F)F)n2CCN3C)cc1S(C)(=O)=O [Compound 154]	2000 to 5000
COc1cc(C(=O)N2CCC3(CC2)c2ccc(Cl)n2CCN3C)ccc1OCC(C)C [Compound 82]	≤ 2000
Cc1cc(C(=O)N2CCC3(CC2)NC(C)(C)Cn2c(C(=O)C(F)(F)F)ccc23)ccc1O [Compound 318]	≤ 2000
CC(C)Oc1ccc(C(=O)N2CCC3(CC2)NC(C)(C)Cn2c(C(=O)C(F)(F)F)ccc23)cc1F [Compound 232]	≤ 2000
CN1CCn2c(C(=O)C(F)(F)F)ccc2C12CCN(C(=O)c1ccc(OCC3CC3)cc1)CC2 [Compound 47]	≤ 2000

SMILES	IC50 [nM]
CN1CCn2c(C(F)(F)F)ccc2C12CCN(C(=O)c1ccc(S(=O)(=O)NC3CC3)cc1)CC2 [Compound 584]	≤ 2000
COc1cc(C(=O)N2CCC3(CC2)NC(C)(C)Cn2c(C(C)=O)ccc23)ccc1C(C)(C)C [Compound 353]	≤ 2000
Cc1nc(C(=O)N2CCC3(CC2)c2ccc(Cl)n2CCN3C)ccc1OC(C)C [Compound 648]	≤ 2000
CC(C)Oc1ccc(C(=O)N2CCC3(CC2)c2ccc(C(=O)C4CC4)n2CCN3C)c(F)c1 [Compound 124]	≤ 2000
COc1cc(C(=O)N2CCC3(CC2)c2ccc(Cl)n2CCN3C)ccc1OCCOC(F)(F)F [Compound 650]	≤ 2000
C[C@H]1Cn2c(C(=O)C(F)(F)F)ccc2C2(CCN(C(=O)c3ccc(C(C)(C)O)c(F)c3)CC2)N1C [Compound 411]	≤ 2000
COc1cc(C(=O)N2CCC3(CC2)c2ccc(Cl)n2CCN3C)ccc1C(C)(C)C [Compound 209]	≤ 2000
CN1CCn2c(C(=O)C3(C)CC3)ccc2C12CCN(C(=O)c1ccc(O)c(C(F)(F)F)c1)CC2 [Compound 685]	≤ 2000
Cc1cc(C(=O)N2CCC3(CC2)NC(C)(C)Cn2c(C(=O)C(F)(F)F)ccc23)ccc1OC(C)C [Compound 131]	≤ 2000
CCC(C)(C)c1ccc(C(=O)N2CCC3(CC2)c2ccc(C(=O)C(F)(F)F)n2CCN3C)cc1 [Compound 54]	2000 to 5000
Cc1cc(C(=O)N2CCC3(CC2)NCC(C)(C)n2c(C(F)(F)F)ccc23)ccc1C(C)(C)O [Compound 128]	≤ 2000
COc1cc(C(=O)N2CCC3(CC2)c2ccc(C(C)=O)n2CCN3C)ccc1COCCC(F)(F)F [Compound 373]	≤ 2000
Cc1cc(C(=O)N2CCC3(CC2)NCCn2c(C(F)(F)F)ccc23)ccc1C(C)(C)O [Compound 715]	≤ 2000
CN1CCn2c(Cl)ccc2C12CCN(C(=O)c1ccc(C3CCCCC3)cc1)CC2 [Compound 626]	≤ 2000
CCOC(=O)N1CCn2c(C#N)ccc2C12CCN(C(=O)c1ccc(OC(C)C)c(C)c1)CC2 [Compound 210]	2000 to 5000
CC(=O)c1ccc2n1CCN(C)C21CCN(C(=O)c2ccc(C(C)(C)C)cc2)CC1 [Compound 473]	> 5000
COc1cccc(C(=O)N2CCC3(CC2)c2ccc(C(F)(F)F)n2CCN3C)c1 [Compound 42]	> 5000
CC(C)CS(=O)(=O)c1ccc(C(=O)N2CCC3(CC2)c2ccc(C(F)(F)F)n2CCN3C)cc1 [Compound 486]	≤ 2000
COc1cc(C(=O)N2CCC3(CC2)N[C@H]2CCCC[C@H]2n2cccc23)ccc1C(C)(C)C [Compound 110]	≤ 2000
CCC(=O)c1ccc2n1CCN(C)C21CCN(C(=O)c2ccc(OC(C)C)c(C)c2)CC1 [Compound 704]	≤ 2000
O=C(c1ccc(S(=O)(=O)NC2CC2)cc1)N1CCC2(CC1)c1ccc(C(F)(F)F)n1CCN2C1CC1 [Compound 708]	≤ 2000
CN1CCn2c(C(F)(F)F)ccc2C12CCN(C(=O)c1cccnc1Oc1ccccc1)CC2 [Compound 422]	≤ 2000
CN1CCn2c(C(=O)C(F)(F)F)ccc2C12CCN(C(=O)c1ccc(O)c(Cl)c1)CC2 [Compound 635]	2000 to 5000
CN1CCn2c(C(=O)C(F)(F)F)ccc2C12CCN(C(=O)c1ccc(S(=O)(=O)C(C)(C)C)cc1)CC2 [Compound 502]	> 5000
CCc1ccc(C(=O)N2CCC3(CC2)c2ccc(C(=O)C(F)(F)F)n2CCN3C)nc1 [Compound 331]	> 5000

SMILES	IC50 [nM]
CC(=O)c1ccc2n1CCN(C)C21CCN(C(=O)c2ccc(OCC3CC3)cc2)CC1 [Compound 388]	> 5000
Cc1cc(S(=O)(=O)C(C)C)ccc1C(=O)N1CCC2(CC1)c1ccc(C(=O)C(C)(C)C)n1CCN2C [Compound 399]	2000 to 5000
CCCCOc1ccc(C(=O)N2CCC3(CC2)c2ccc(C(C)=O)n2CCN3C)cc1 [Compound 34]	≤ 2000
CCc1ccc(C(=O)N2CCC3(CC2)c2ccc(C(C)=O)n2CCN3C)cc1 [Compound 278]	> 5000
CCCCOc1cc(C(=O)N2CCC3(CC2)c2ccc(Cl)n2CCN3C)ccc1OC [Compound 539]	> 5000
CCCOc1cc(C(=O)N2CCC3(CC2)c2ccc(C(=O)C(F)(F)F)n2CCN3C)ccc1OC [Compound 142]	≤ 2000
COc1cc(C(=O)N2CCC3(CC2)c2ccc(C(F)(F)C(F)(F)F)n2CCN3C)ccc1OC(C)C [Compound 722]	≤ 2000
COc1cc(C(=O)N2CC[C@]3(c4ccc(C(F)(F)F)n4CCN3C)[C@H](F)C2)ccc1OC(C)C [Compound 3]	> 5000
CN1CCn2c(C(F)(F)F)cc(F)c2C12CCN(C(=O)c1ccc(C3(O)CCC3)cc1)CC2 [Compound 242]	≤ 2000
CCCOc1ccc(C(=O)N2CCC3(CC2)c2c(F)cc(C(F)(F)F)n2CCN3C)cc1 [Compound 18]	≤ 2000
COc1ccc(C(=O)N2CCC3(CC2)c2cc(C(=O)C(F)(F)F)cn2C(C)(C)CN3C)cc1Cl [Compound 529]	> 5000
CN1CCn2c(C(=O)C(F)(F)F)ccc2C12CCN(C(=O)c1ccc(-c3ccccc3)cn1)CC2 [Compound 453]	2000 to 5000
COc1ccc(C(=O)N2CCC3(CC2)NCC(C)n2c(C(=O)C(F)(F)F)ccc23)cc1C(F)(F)F (stereo not drawn) [Compound 173]	≤ 2000
CC(C)Oc1ccc(C(=O)N2CCC3(CC2)c2ccc(C(=O)C(F)(F)F)n2CCN3C)cc1Cl [Compound 528]	≤ 2000
CCOc1ncccc1C(=O)N1CCC2(CC1)c1ccc(C(F)(F)F)n1CCN2C [Compound 297]	≤ 2000
CN1CCn2c(C(F)(F)F)ccc2C12CCN(C(=O)c1ccc(S(=O)(=O)N3CCCC3)cc1)CC2 [Compound 123]	≤ 2000
COc1ccc(C(=O)N2CCC3(CC2)NCC(C)n2c(C(=O)C(F)(F)F)ccc23)cc1C (stereo not drawn) [Compound 595]	≤ 2000
CC(C)CCOc1ccc(C(=O)N2CCC3(CC2)NC(C)(C)Cn2c(C(=O)C(F)(F)F)ccc23)cc1 [Compound 409]	≤ 2000
CN1CCn2c(C(=O)C(F)(F)F)ccc2C12CCN(C(=O)c1ccc(OCC3CC3)c(F)c1)CC2 [Compound 46]	≤ 2000
CC(=O)c1ccc2n1CCN(C)C21CCN(C(=O)c2ccc(N3CCCCC3)cc2)CC1 [Compound 504]	> 5000
COc1ccc(C(=O)N2CCC3(CC2)c2c(Cl)cc(C(F)(F)F)n2CCN3C)cc1C [Compound 713]	2000 to 5000
CC(C)Oc1ccc(C(=O)N2CCC3(CC2)N[C@@H](C)Cn2c(C(F)(F)F)ccc23)cc1F [Compound 108]	2000 to 5000
COc1ccc(C(=O)N2CCC3(CC2)NC(C)(C)Cn2c(C(=O)C(F)(F)F)ccc23)cc1C(F)(F)F [Compound 377]	≤ 2000
Cc1cc(C)n2ncc(C(=O)N3CCC4(CC3)c3ccc(C(F)(F)F)n3CCN4C)c2n1 [Compound 673]	≤ 2000
CC(C)Oc1ccc(C(=O)N2CCC3(CC2)NC(C)(C)Cn2c(C(F)(F)F)ccc23)c(F)c1 [Compound 721]	≤ 2000
